# Test results: ChEMBL document CHEMBL4373704, “Mucosal Vaccination with a Self-Adjuvanted Lipopeptide Is Immunogenic and Protective against Mycobacterium tuberculosis” (J Med Chem, 2019)
# Active and inactive are the calls of the source. The calls are words filed in the database; no cut-off is given here.
# How the values were obtained:
# [1] = biological target: Toll-like receptor 2 (Homo sapiens) (UniProt O60603); assay: Activation of YFP-tagged TLR2 (unknown origin) expressed in HEK293 cells assessed as induction of IL8 secretion at 33.5 ug/mL incubated for 16 to 18 hrs by ELISA; assay type: cell-based
# [2] = species: Mus musculus; assay: Induction of antigen-specific immunogenicity in C57BL/6 mouse assessed as induction of pulmonary CD4+ T-lymphocyte responses by measuring lung ESAT6-specific CD4+ T-lymphocytes producing IL-17 at 14.2 ug, in measured 3 weeks after the final vaccination by immunostaining and flow cytometry; assay type: functional, organism-based
# [3] = species: Mus musculus; assay: Induction of antigen-specific immunogenicity in C57BL/6 mouse assessed as induction of pulmonary CD4+ T-lymphocyte responses by measuring lung ESAT6-specific CD4+ T-lymphocytes producing TNFalpha at 14.2 ug, in measured 3 weeks after the final vaccination by immunostaining and flow cytometry; assay type: functional, organism-based
# [4] = species: Mus musculus; assay: Induction of antigen-specific immunogenicity in C57BL/6 mouse assessed as induction of pulmonary CD4+ T-lymphocyte responses by measuring lung ESAT6-specific CD4+ T-lymphocytes producing INFNgamma at 14.2 ug, in measured 3 weeks after the final vaccination by immunostaining and flow cytometry; assay type: functional, organism-based
# [5] = species: Mus musculus; assay: Induction of antigen-specific immunogenicity in C57BL/6 mouse assessed as induction of pulmonary CD4+ T-lymphocyte responses by measuring lung ESAT6-specific CD4+ T-lymphocytes producing IL-2 at 14.2 ug, in measured 3 weeks after the final vaccination by immunostaining and flow cytometry; assay type: functional, organism-based
# [6] = system: Mus musculus; assay: Induction of antigen-specific immunogenicity in C57BL/6 mouse assessed as induction of pulmonary CD4+ T-lymphocyte responses by measuring lung ESAT6-specific CD4+ T-lymphocytes producing IL-17 at 56.8 ug, sc measured 3 weeks after the final vaccination by immunostaining and flow cytometry; assay type: functional, organism-based
# [7] = system: Mus musculus; assay: Induction of antigen-specific immunogenicity in C57BL/6 mouse assessed as induction of pulmonary CD4+ T-lymphocyte responses by measuring lung ESAT6-specific CD4+ T-lymphocytes producing IL-2 at 56.8 ug, sc measured 3 weeks after the final vaccination by immunostaining and flow cytometry; assay type: functional, organism-based
# [8] = system: Mus musculus; assay: Induction of antigen-specific immunogenicity in C57BL/6 mouse assessed as induction of pulmonary CD4+ T-lymphocyte responses by measuring lung ESAT6-specific CD4+ T-lymphocytes producing IFNgamma at 56.8 ug, sc measured 3 weeks after the final vaccination by immunostaining and flow cytometry; assay type: functional, organism-based
# [9] = system: Mus musculus; assay: Induction of antigen-specific immunogenicity in C57BL/6 mouse assessed as induction of pulmonary CD4+ T-lymphocyte responses by measuring lung ESAT6-specific CD4+ T-lymphocytes producing TNFalpha at 56.8 ug, sc measured 3 weeks after the final vaccination by immunostaining and flow cytometry; assay type: functional, organism-based
# [10] = species: Mus musculus; assay: Induction of antigen-specific immunogenicity in C57BL/6 mouse assessed as induction of pulmonary CD4+ T-lymphocyte responses by measuring spleen ESAT6-specific CD4+ T-lymphocytes producing IL-17 at 14.2 ug, in measured 3 weeks after the final vaccination by immunostaining and flow cytometry; assay type: functional, organism-based
# [11] = species: Mus musculus; assay: Induction of antigen-specific immunogenicity in C57BL/6 mouse assessed as induction of pulmonary CD4+ T-lymphocyte responses by measuring spleen ESAT6-specific CD4+ T-lymphocytes producing IL-2 at 14.2 ug, in measured 3 weeks after the final vaccination by immunostaining and flow cytometry; assay type: functional, organism-based
# [12] = species: Mus musculus; assay: Induction of antigen-specific immunogenicity in C57BL/6 mouse assessed as induction of pulmonary CD4+ T-lymphocyte responses by measuring spleen ESAT6-specific CD4+ T-lymphocytes producing IFNgamma at 14.2 ug, in measured 3 weeks after the final vaccination by immunostaining and flow cytometry; assay type: functional, organism-based
# [13] = species: Mus musculus; assay: Induction of antigen-specific immunogenicity in C57BL/6 mouse assessed as induction of pulmonary CD4+ T-lymphocyte responses by measuring spleen ESAT6-specific CD4+ T-lymphocytes producing TNFalpha at 14.2 ug, in measured 3 weeks after the final vaccination by immunostaining and flow cytometry; assay type: functional, organism-based
# [14] = system: Mus musculus; assay: Induction of antigen-specific immunogenicity in C57BL/6 mouse assessed as induction of pulmonary CD4+ T-lymphocyte responses by measuring spleen ESAT6-specific CD4+ T-lymphocytes producing IL-2 at 56.8 ug, sc measured 3 weeks after the final vaccination by immunostaining and flow cytometry; assay type: functional, organism-based
# [15] = system: Mus musculus; assay: Induction of antigen-specific immunogenicity in C57BL/6 mouse assessed as induction of pulmonary CD4+ T-lymphocyte responses by measuring spleen ESAT6-specific CD4+ T-lymphocytes producing TNFalpha at 56.8 ug, sc measured 3 weeks after the final vaccination by immunostaining and flow cytometry; assay type: functional, organism-based
# [16] = system: Mus musculus; assay: Induction of antigen-specific immunogenicity in C57BL/6 mouse assessed as induction of pulmonary CD4+ T-lymphocyte responses by measuring spleen ESAT6-specific CD4+ T-lymphocytes producing IL-17 at 56.8 ug, sc measured 3 weeks after the final vaccination by immunostaining and flow cytometry; assay type: functional, organism-based
# [17] = system: Mus musculus; assay: Induction of antigen-specific immunogenicity in C57BL/6 mouse assessed as induction of pulmonary CD4+ T-lymphocyte responses by measuring spleen ESAT6-specific CD4+ T-lymphocytes producing IFNgamma at 56.8 ug, sc measured 3 weeks after the final vaccination by immunostaining and flow cytometry; assay type: functional, organism-based
# [18] = species: Mus musculus; assay: Induction of antigen-specific immunogenicity in C57BL/6 mouse assessed as induction of pulmonary CD4+ T-lymphocyte responses by measuring lung ESAT6-specific CD8+ T-lymphocytes producing IL-17 at 10 ug, in measured 3 weeks after the final vaccination by immunostaining and flow cytometry; assay type: functional, organism-based
# [19] = species: Mus musculus; assay: Induction of antigen-specific immunogenicity in C57BL/6 mouse assessed as induction of pulmonary CD4+ T-lymphocyte responses by measuring lung ESAT6-specific CD8+ T-lymphocytes producing IL-2 at 10 ug, in measured 3 weeks after the final vaccination by immunostaining and flow cytometry; assay type: functional, organism-based
# [20] = species: Mus musculus; assay: Induction of antigen-specific immunogenicity in C57BL/6 mouse assessed as induction of pulmonary CD4+ T-lymphocyte responses by measuring lung ESAT6-specific CD8+ T-lymphocytes producing IFNgamma at 10 ug, in measured 3 weeks after the final vaccination by immunostaining and flow cytometry; assay type: functional, organism-based
# [21] = species: Mus musculus; assay: Induction of antigen-specific immunogenicity in C57BL/6 mouse assessed as induction of pulmonary CD4+ T-lymphocyte responses by measuring lung ESAT6-specific CD8+ T-lymphocytes producing TNFalpha at 10 ug, in measured 3 weeks after the final vaccination by immunostaining and flow cytometry; assay type: functional, organism-based
# [22] = system: Mus musculus; assay: Induction of antigen-specific immunogenicity in C57BL/6 mouse assessed as induction of pulmonary CD4+ T-lymphocyte responses by measuring spleen ESAT6-specific CD8+ T-lymphocytes producing IFNgamma at 10 ug, sc measured 3 weeks after the final vaccination by immunostaining and flow cytometry; assay type: functional, organism-based
# [23] = system: Mus musculus; assay: Induction of antigen-specific immunogenicity in C57BL/6 mouse assessed as induction of pulmonary CD4+ T-lymphocyte responses by measuring spleen ESAT6-specific CD8+ T-lymphocytes producing TNFalpha at 10 ug, sc measured 3 weeks after the final vaccination by immunostaining and flow cytometry; assay type: functional, organism-based
# [24] = biological target: Toll-like receptor 2 (Homo sapiens) (UniProt O60603); assay: Activation of YFP-tagged TLR2 (unknown origin) expressed in HEK293 cells assessed as induction of IL8 secretion at 8 ug/mL incubated for 16 to 18 hrs by ELISA; assay type: cell-based
# Chain of Toll-like receptor 2 (Homo sapiens) (O60603 whole entry): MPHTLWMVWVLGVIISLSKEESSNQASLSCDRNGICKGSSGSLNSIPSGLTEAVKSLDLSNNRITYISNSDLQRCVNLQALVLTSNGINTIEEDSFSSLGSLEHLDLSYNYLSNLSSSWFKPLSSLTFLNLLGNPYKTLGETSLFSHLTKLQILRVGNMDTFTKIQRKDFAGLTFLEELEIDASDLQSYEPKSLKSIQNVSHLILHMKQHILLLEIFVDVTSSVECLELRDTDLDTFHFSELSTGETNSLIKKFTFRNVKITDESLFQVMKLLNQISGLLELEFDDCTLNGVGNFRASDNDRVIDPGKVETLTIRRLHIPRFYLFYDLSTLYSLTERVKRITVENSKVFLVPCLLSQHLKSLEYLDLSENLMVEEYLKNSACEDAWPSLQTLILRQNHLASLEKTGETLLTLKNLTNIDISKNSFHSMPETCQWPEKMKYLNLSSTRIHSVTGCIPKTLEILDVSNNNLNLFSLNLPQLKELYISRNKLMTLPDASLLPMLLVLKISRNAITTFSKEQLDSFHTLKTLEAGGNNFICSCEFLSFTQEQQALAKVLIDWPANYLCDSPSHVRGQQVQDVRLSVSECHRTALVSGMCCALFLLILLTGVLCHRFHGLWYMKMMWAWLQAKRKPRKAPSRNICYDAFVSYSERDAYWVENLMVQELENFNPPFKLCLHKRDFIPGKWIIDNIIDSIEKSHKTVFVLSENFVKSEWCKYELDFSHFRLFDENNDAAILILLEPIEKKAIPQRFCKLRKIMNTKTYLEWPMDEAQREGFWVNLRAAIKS
compound,measurement,setting,value
CCCCCCCCCCCCCCCC(=O)OC[C@H](CSC[C@H](N)C(=O)N[C@@H](CO)C(=O)N[C@@H](CCCCN)C(=O)N[C@@H](CCCCN)C(=O)N[C@@H](CCCCN)C(=O)N[C@@H](CCCCN)C(=O)NCCOCCOCC(=O)N[C@@H](CCSC)C(=O)N[C@H](C(=O)N[C@@H](CCC(=O)O)C(=O)N[C@@H](CCC(N)=O)C(=O)N[C@@H](CCC(N)=O)C(=O)N[C@@H](Cc1c[nH]c2ccccc12)C(=O)N[C@@H](CC(N)=O)C(=O)N[C@@H](Cc1ccccc1)C(=O)N[C@@H](C)C(=O)NCC(=O)N[C@H](C(=O)N[C@@H](CCC(=O)O)C(=O)N[C@@H](C)C(=O)N[C@@H](C)C(=O)N[C@@H](C)C(=O)N[C@@H](CO)C(=O)N[C@@H](C)C(=O)N[C@H](C(=O)N[C@@H](CCC(N)=O)C(=O)NCC(=O)N[C@@H](CCC(N)=O)C(=O)N[C@H](C(=O)N[C@@H](CCSC)C(=O)N[C@@H](Cc1ccc(O)cc1)C(=O)N[C@@H](CC(N)=O)C(=O)N[C@@H](Cc1ccc(O)cc1)C(=O)N1CCC[C@H]1C(=O)N[C@@H](C)C(=O)N[C@@H](CCSC)C(=O)O)[C@@H](C)CC)[C@@H](C)CC)[C@@H](C)CC)[C@@H](C)O)OC(=O)CCCCCCCCCCCCCCC,Activity,[1],Active
same,Activity,[2],Active
same,Activity,[3],Active
same,Activity,[4],Active
same,Activity,[5],Active
same,Activity,[6],inactive
same,Activity,[7],inactive
same,Activity,[8],inactive
same,Activity,[9],inactive
same,Activity,[10],Active
same,Activity,[11],Active
same,Activity,[12],Active
same,Activity,[13],Active
same,Activity,[14],Active
same,Activity,[15],Active
same,Activity,[16],inactive
same,Activity,[17],inactive
H-QIMYNYPAM-OH,Activity,[18],inactive
same,Activity,[19],inactive
same,Activity,[20],inactive
same,Activity,[21],inactive
same,Activity,[22],Active
same,Activity,[23],Active
same,Activity,[24],inactive
